Source: paper PMC10486429, “Investigations Using Albumin Binders to Modify the Tissue Distribution Profile of Radiopharmaceuticals Exemplified with Folate Radioconjugates” (Cancers, 2023)

Columns and labels:
[1] = n-octanol/PBS distribution coefficient (shake-flask) of 177Lu-RedFols; assay type: physicochemical; settings: n-octanol/PBS pH 7.4
Procedure: The radiolytic stability of ^177Lu-RedFols (50 MBq/nmol) in PBS pH 7.4 was investigated at an activity concentration of 100 MBq in 500 µL over 24 h at room temperature. The n-octanol/PBS distribution coefficients (logD values) of the folate radioconjugates (50 MBq/nmol) were determined using the same shake-flask method as used for the ^177Lu-DOTA-ALBs, including statistical analysis (Supplementary Material, Section S4). […]
S4. n-Octanol/PBS Distribution Coefficient of 177Lu-DOTA-ALBs
Purpose: The n-octanol/PBS distribution coefficients (logD values) were determined for all 177Lu-DOTA-ALBs in order to assess their hydrophilic/hydrophobic properties.
Methods: The n-octanol/PBS distribution coefficients (logD values) of the 177Lu-DOTA-ALBs were determined as previously described. […] 4 . […]
The vials were vortexed vigorously for 1 min followed by centrifugation for 6 min at 560 rcf for phase separation. An aliquot was taken from each phase and measured in a γ-counter (Perkin Elmer, Wallac Wizard 1480, Waltham, MA, USA). The distribution coeffi-cients were calculated as the logarithm of the ratio of counts per minute (cpm) measured in the n-octanol phase relative to the cpm measured in the PBS phase. The results were listed as the average ± standard deviation (SD) of the data obtained from 2–3 independent experiments, each performed with five replicates. […]

[2] = test system: human serum albumin (HSA) in human blood plasma; assay: Ultrafiltration albumin-binding assay of 177Lu-DOTA-ALBs, human blood plasma
Procedure: (§1) The relative affinities of ^177Lu-labeled DOTA-ALBs (50 MBq/nmol) to albumin in mouse and human blood plasma were determined using an ultrafiltration assay according to a previously described procedure (Supplementary Materials Section S5). A dry chemistry analyzer (DRI-CHEM 4000i, FUJIFILM, Japan) was used to determine the mouse serum albumin concentration (conc. MSA: ~550 µM) in mouse blood plasma (Rockland Immunochemicals, Inc., Pottstown, PA, USA, Lot No. 23248) and the human serum albumin concentration (conc. HSA: ~800 µM) in human blood plasma of a healthy volunteer (Stiftung Blutspende SRK Aargau-Solothurn, Aarau, Switzerland). The albumin-bound fraction of the radioligands was determined at variable molar concentration ratios of serum albumin to the respective radiolabeled DOTA-ALB using a blood plasma/PBS dilution series and a constant amount of ^177Lu-DOTA-ALBs (0.5 MBq; 0.01 nmol). The free (albumin-unbound) radioligand fraction was separated from the albumin-bound fraction using Centrifree filter devices (cut-off 10 kDa; Merck Millipore, Carrigtwohill, Ireland) to enable the calculation of the percentage of albumin-bound radioligand. […] The results were presented as average ± standard deviation (SD) of 3 independent experiments. […]
(§2) S5. Relative Albumin-binding Properties of 177Lu-DOTA-ALBs
(§3) Purpose: The relative albumin-binding affinities of the 177Lu-DOTA-ALBs were in-vestigated using mouse and human blood plasma.
(§4) Methods: Relative binding affinities of 177Lu-DOTA-ALBs to mouse (MSA) and hu-man (HSA) serum albumin in the respective blood plasma were determined using an ul-trafiltration assay according to a previously described procedure. In brief, an average MSA concentration of ⁓550 µM was measured for mouse blood plasma (Rockland Immu-nochemicals, Inc., Pottstown, PA, USA, Lot N° 23248), while an HSA concentration of ⁓800 µM was determined for human blood plasma (Stiftung Blutspende SRK Aargau-Solothurn, Aarau, Switzerland) using a dry chemistry analyzer (DRI-CHEM 4000i, FUJI-FILM, Japan). A fixed amount of the respective 177Lu-DOTA-ALB (50 MBq/nmol:, ~500 kBq, 25 µL, 0.01 nmol) was added to a defined volume (250 µL) of mouse and human […]
(§5) and 0.01 to 20000, respectively. […]
(§6) off 10 kDa; Merck Millipore, Carrigtwohill, Ireland). The albumin-bound fractions at the […]
(§7) the half-maximum binding (B50). The relative albumin-binding affinities were defined as […]
(§8) sented as average ± SD of 3 independent experiments.
(§9) Results: The results are reported in the main article.
(§10) S6. Blood Clearance of 177Lu-DOTA-ALBs […]
(§11) their blood clearance profile.
(§12) Blood clearance of 177Lu-labeled DOTA-ALBs were determined in n=3–6 mice per radioligand. The radiolabeled DOTA-ALBs ( […]
(§13) various timepoints over the following 48 h. […]
(§14) up to 3 and 7 days, respectively. […]

[3] = test system: mouse serum albumin (MSA) in mouse blood plasma; assay: Ultrafiltration albumin-binding assay of 177Lu-DOTA-ALBs, mouse blood plasma
Procedure: as §1, §2, §3, §4, §5, §6, §7, §8, §9, §10, §11, §12, §13, §14

CN1c2c(nc(N)[nH]c2=O)NC[C@H]1CNc1ccc(C(=O)N[C@@H](CCC(=O)N[C@@H](CCCCNC(=O)CN2CCN(CC(=O)O)CCN(CC(=O)O)CCN(CC(=O)O)CC2)C(=O)N[C@@H](CCCCNC(=O)c2ccc(CNC(=O)CCCc3ccc(I)cc3)cc2)C(=O)O)C(=O)O)cc1 [[^177Lu]Lu-6R-RedFol-3, metal not drawn]
logD Values [1]: −3.2 ± 0.1

O=C(O)CN1CCN(CC(=O)O)CCN(CC(=O)NCCC(=O)N[C@@H](CCCCNC(=O)c2ccc(CNC(=O)CCCc3ccc(I)cc3)cc2)C(=O)O)CCN(CC(=O)O)CC1.[177Lu] [[^177Lu]Lu-DOTA-ALB-3]
Albumin-binding affinity relative to [177Lu]Lu-DOTA-ALB-1 [2]: almost no difference
Fold stronger albumin-binding affinity than [177Lu]Lu-DOTA-ALB-25 [2]: ~ 4 fold
Fold increased albumin-binding affinity relative to [177Lu]Lu-DOTA-ALB-1 [3]: ~ 15 fold
Fold stronger albumin-binding affinity than [177Lu]Lu-DOTA-ALB-25 [3]: ~ 10 fold

O=C(O)CN1CCN(CC(=O)O)CCN(CC(=O)NCCC(=O)N[C@@H](CCCCNC(=O)CCCc2ccc(I)cc2)C(=O)O)CCN(CC(=O)O)CC1.[177Lu] [[^177Lu]Lu-DOTA-ALB-1]
Fold higher albumin-binding affinity than [177Lu]Lu-DOTA-ALB-24 [2]: ~ 10 fold
Fold higher albumin-binding affinity than [177Lu]Lu-DOTA-ALB-24 [3]: ~ 3 fold

CN1c2c(nc(N)[nH]c2=O)NC[C@H]1CNc1ccc(C(=O)N[C@@H](CCC(=O)N[C@@H](CCCCNC(=O)CN2CCN(CC(=O)O)CCN(CC(=O)O)CCN(CC(=O)O)CC2)C(=O)N[C@@H](CCCCNC(=O)CCCCc2ccc(I)cc2)C(=O)O)C(=O)O)cc1 [[^177Lu]Lu-6R-RedFol-24, metal not drawn]
logD [1]: -3.4 ± 0.2

CN1c2c(nc(N)[nH]c2=O)NCC1CNc1ccc(C(=O)NC(CCC(=O)NC(CCCCNC(=O)CN2CCN(CC(=O)[O-])CCN(CC(=O)[O-])CCN(CC(=O)[O-])CC2)C(=O)NC(CCCCNC(=O)c2ccc(CNC(=O)CCCCc3ccc(I)cc3)cc2)C(=O)O)C(=O)O)cc1.[177Lu+3] (stereo not drawn) [[^177Lu]Lu-6S-RedFol-25]
logD Values [1]: −3.0 ± 0.1

CN1c2c(nc(N)[nH]c2=O)NC[C@H]1CNc1ccc(C(=O)N[C@@H](CCC(=O)N[C@@H](CCCCNC(=O)CN2CCN(CC(=O)O)CCN(CC(=O)O)CCN(CC(=O)O)CC2)C(=O)N[C@@H](CCCCNC(=O)c2ccc(CNC(=O)CCCCc3ccc(I)cc3)cc2)C(=O)O)C(=O)O)cc1 [[^177Lu]Lu-6R-RedFol-25, metal not drawn]
logD Values [1]: −3.0 ± 0.1

CN1c2c(nc(N)[nH]c2=O)NCC1CNc1ccc(C(=O)NC(CCC(=O)NC(CCCCNC(=O)CN2CCN(CC(=O)[O-])CCN(CC(=O)[O-])CCN(CC(=O)[O-])CC2)C(=O)NC(CCCCNC(=O)c2ccc(CNC(=O)CCCc3ccc(I)cc3)cc2)C(=O)O)C(=O)O)cc1.[177Lu+3] (stereo not drawn) [[^177Lu]Lu-6S-RedFol-3]
logD Values [1]: −3.2 ± 0.1

O=C(O)CN1CCN(CC(=O)O)CCN(CC(=O)NCCC(=O)N[C@@H](CCCCNC(=O)c2ccc(CNC(=O)CCCCc3ccc(I)cc3)cc2)C(=O)O)CCN(CC(=O)O)CC1.[177Lu] [[^177Lu]Lu-DOTA-ALB-25]
Fold higher albumin-binding affinity than [177Lu]Lu-DOTA-ALB-24 [2]: ~ 3 fold
Fold higher albumin-binding affinity than [177Lu]Lu-DOTA-ALB-24 [3]: ~ 5 fold
